Assay results published in US20040038950A1, “Pharmaceutical composition for treating IL-1 related diseases or disorders” (priority 2002, published 2004).

Key:
type II collagen mRNA = assay: Osteoarthritic rabbit model (ACLT), intraarticular injection, RT-PCR of type II collagen; assay type: in vivo; settings: rabbit ACLT knee, intraarticular once a week for 5 weeks
Experimental: (§1) Mature New Zealand White rabbits underwent bilateral anterior cruciate ligament transection (ACLT). ACLT was performed using a medial arthrotomy method. Postoperatively the animals were permitted cage (60 cm×60 cm×40 cm) activity without immobilization. The right knees received via intraartiticular injection DHEA, DHEA-pyruvate or DHEA+HA, 4 weeks after ACLT and once a week for 5 weeks. The left knees received 0.3 ml of intraarticular injection with control solution (carrier solution). After 9 weeks from ACLT, the animas were sacrificed.
(§2) Synovium (entire tissue) around the infrapatellar fat pads and cartilage tissue from the femoral condyle and the tibial plateau were harvested. The subsequent experimental procedure was the same as described in Test Example IV.

TIMP-1 mRNA = assay: Osteoarthritic rabbit model (ACLT), intraarticular injection, RT-PCR of TIMP-1; assay type: in vivo; settings: rabbit ACLT knee, intraarticular once a week for 5 weeks
Experimental: as §1, §2

MMP-1 mRNA = assay: Effect of IL-1β on MMP-1 mRNA expression in chondrocyte culture, RT-PCR; assay type: cell-based, human; settings: 1000 μg/ml of IL-1β, 3 days
Experimental: (§3) Sixteen hours prior to a treatment, the complete culture medium was replaced with a serum-free medium. Chondrocyte alginate bead cultures were then treated with IL-1β ([…], (Calbiochem) and DHEA (0, 10, 50 or 100 μM) for 3 days.
(§4) Total RNA from chondrocytes was extracted using RNeasy Mini Kit (QIAGEN). Reverse transcription from 1 μg of total RNA was conducted using First Strand cDNA Synthesis Kit (MBI Fermentas) according to manufacturer's recommendation with random hexamers. The resulting cDNA was then amplified by polymerase chain reaction using AccuPower PCR Premix (Bioneer, Korea) in a final volume of 20 μl using three thermocycler temperatures (30 sec at […], 30 sec at 60° C., and 30 sec at […]). All reactions were determined to be in the linear range of amplification with the cycle number ranging from 14 to 30. The PCR products were analyzed by separation on a 2% agarose gel followed by ethidium bromide staining. Following electrophoresis, photographs were taken and analyzed using a densitometric program (TINA; Raytest Isotopenmeβgerate, Germany). Integrated density values for the genes in question were then normalized to the glyceraldehyde-3-phosphate dehydrogenase (GAPDH) values for a semiquantitative assessment. After normalizing with respect to GAPDH, percentage increase or decrease was determined. Each experiment was repeated at least three times. […]

MMP-3 mRNA = assay: Effect of IL-1β on MMP-3 mRNA expression in chondrocyte culture, RT-PCR; assay type: cell-based, human; settings: 100 μg/ml of IL-1β, 3 days
Experimental: as §3, §4

Compound: CC(=O)C(=O)O[C@H]1CC[C@@]2(C)C(=CC[C@@H]3[C@@H]2CC[C@]2(C)C(=O)CC[C@@H]32)C1 [DHEA-pyruvate, DHEA-Pyruvate]
- expression of type II collagen (type II collagen mRNA): increased
- expression of TIMP-1 (TIMP-1 mRNA): increased

Compound: IL-1β: recombinant human interleukin-1β (Calbiochem), used to induce MMP mRNA in chondrocytes
- MMP-1 mRNA, increase (MMP-1 mRNA): 470%
- MMP-3 mRNA, increase (MMP-3 mRNA): 310%
